Experimental data reported in patent US20140243302A1, “BRIDGED BICYCLIC COMPOUNDS FOR THE TREATMENT OF BACTERIAL INFECTIONS” (priority 2011, published 2014).
Converted amounts (≈) assume the structure as drawn.

Test system: Staphylococcus aureus Smith
Experiment: MIC assay, modified agar dilution (CLSI), S. aureus Smith
Format: cell-based
Conditions: Staphylococcus aureus, agar dilution, 35° C., 16-20 hr; lowest concentration that completely inhibited growth; read-out: S_aureus_Smith_WT_MIC
In short: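 Strains were spotted at about 1×10^4 CFU onto compound-containing Mueller Hinton agar (two-fold series, 128-0.001 μg/mL), horse blood 5% added for pneumococcus and enterococcus. MIC read after 16-20 hr at 35 °C, following a modified CLSI agar dilution method.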

MIC [µg/mL]	Structure (SMILES)
0.031 (≈ 0.0631 µM)	COc1ccc2ncc(O)c(CCC34CCC(NCc5ccc6c(n5)NC(=O)CO6)(CC3)CO4)c2n1 [Example 124, 6-(((1-(2-(3-Hydroxy-6-methoxy-1,5-naphthyridin-4-yl)ethyl)-2-oxabicyclo[2.2.2]octan-4-yl)amino)methyl)-2H-pyrido[3,2-b][1,4]oxazin-3(4H)-one]
0.016	COc1ccc2ncc(F)c(CCC34CCC(NCc5ccc6c(n5)NC(=O)CO6)(CC3)CO4)c2c1.Cl [Example 125, 6-((1-(2-(3-Fluoro-6-methoxyquinolin-4-yl)ethyl)-2-oxabicyclo[2.2.2]octan-4-ylamino)methyl)-2H-pyrido[3,2-b][1,4]oxazin-3(4H)-one Hydrochloride]
0.25 (≈ 0.525 µM)	Cc1ccc2ncc(=O)n(CCC34CCC(NCc5ccc6c(n5)NC(=O)CO6)(CC3)CO4)c2n1 [Example 126, 6-(((1-(2-(6-Methyl-3-oxopyrido[2,3-b]pyrazin-4(3H)-yl)ethyl)-2-oxabicyclo[2.2.2]octan-4-yl)amino)methyl)-2H-pyrido[3,2-b][1,4]oxazin-3(4H)-one]
0.25	COC(=O)c1cnc2ccc(=O)n(CCC34CCC(NCc5ccc6c(n5)NC(=O)CO6)(CC3)CO4)c2c1.Cl [Example 127, Methyl 6-Oxo-5-(2-(4-((3-oxo-3,4-dihydro-2H-pyrido[3,2-b][1,4]oxazin-6-yl)methylamino)-2-oxabicyclo[2.2.2]octan-1-yl)ethyl)-5,6-dihydro-1,5-naphthyridine-3-carboxylate Hydrochloride]
0.063 (≈ 0.129 µM)	N#Cc1cnc2ccc(=O)n(CCC34CCC(NCc5ccc6c(n5)NC(=O)CO6)(CC3)CO4)c2c1 [Example 128, 6-Oxo-5-(2-(4-((3-oxo-3,4-dihydro-2H-pyrido[3,2-b][1,4]oxazin-6-yl)methylamino)-2-oxabicyclo[2.2.2]octan-1-yl)ethyl)-5,6-dihydro-1,5-naphthyridine-3-carbonitrile]
0.063 (≈ 0.127 µM)	O=C1COc2ccc(CNC34CCC(CCn5c(=O)ccc6ncc(Cl)cc65)(CC3)OC4)nc2N1 [Example 129, 6-((1-(2-(7-Chloro-2-oxo-1,5-naphthyridin-1(2H)-yl)ethyl)-2-oxabicyclo[2.2.2]octan-4-ylamino)methyl)-2H-pyrido[3,2-b][1,4]oxazin-3(4H)-one]
0.063 (≈ 0.117 µM)	O=C1COc2ccc(CNC34CCC(CCn5c(=O)ccc6ncc(Br)cc65)(CC3)OC4)nc2N1 [Example 130, 6-((1-(2-(7-Bromo-2-oxo-1,5-naphthyridin-1(2H)-yl)ethyl)-2-oxabicyclo[2.2.2]octan-4-ylamino)methyl)-2H-pyrido[3,2-b][1,4]oxazin-3(4H)-one]
0.016	COc1ccc2ccc(=O)n(CCC34CCC(NCc5ccc6c(n5)NC(=O)CO6)(CC3)CO4)c2n1.Cl [Example 131, 6-((1-(2-(7-Methoxy-2-oxo-1,8-naphthyridin-1(2H)-yl)ethyl)-2-oxabicyclo[2.2.2]octan-4-ylamino)methyl)-2H-pyrido[3,2-b][1,4]oxazin-3(4H)-one Hydrochloride]
0.25 (≈ 0.506 µM)	COc1ccc2ncc(F)c(NCC34CCC(NCc5ccc6c(n5)NC(=O)CO6)(CC3)CO4)c2n1 [Example 136, 6-({1-[(3-Fluoro-6-methoxy-[1,5]naphthyridin-4-ylamino)-methyl]-2-oxa-bicyclo[2.2.2]oct-4-ylamino}-methyl)-4H-pyrido[3,2-b][1,4]oxazin-3-one]
0.063 (≈ 0.121 µM)	CCOc1cc(C)c2ncc(F)c(CCC34CCC(NCc5ccc6c(n5)NC(=O)CO6)(CC3)CO4)c2n1 [Example 137, 6-[({1-[2-(6-Ethoxy-3-fluoro-8-methyl-1,5-naphthyridin-4-yl)ethyl]-2-oxabicyclo[2.2.2]oct-4-yl}amino)methyl]-2H-pyrido[3,2-b][1,4]oxazin-3(4H)-one]
0.5 (≈ 0.866 µM)	COc1ccc2ncc(F)c(CC(O)(C(F)(F)F)C34CCC(NCc5ccc6c(n5)NC(=O)CO6)(CC3)CO4)c2n1 (centres unmarked) [Example 138, 6-[({1-[1,1,1-Trifluoro-3-(3-fluoro-6-methoxy-1,5-naphthyridin-4-yl)-2-hydroxypropan-2-yl]-2-oxabicyclo[2.2.2]oct-4-yl}amino)methyl]-2H-pyrido[3,2-b][1,4]oxazin-3(4H)-one]
0.063 (≈ 0.124 µM)	COc1cc(C)c2ncc(F)c(CCC34CCC(NCc5ccc6c(n5)NC(=O)CO6)(CC3)CO4)c2c1 [Example 139, 6-((1-(2-(3-Fluoro-6-methoxy-8-methylquinolin-4-yl)ethyl)-2-oxabicyclo[2.2.2]octan-4-ylamino)methyl)-2H-pyrido[3,2-b][1,4]oxazin-3(4H)-one]
0.063 (≈ 0.121 µM)	COc1cc(C)c2ncc(F)c(CC(O)C34CCC(NCc5ccc6c(n5)NC(=O)CO6)(CC3)CO4)c2c1 (centres unmarked) [Example 140, 6-[({1-[2-(3-Fluoro-6-methoxy-8-methylquinolin-4-yl)-1-hydroxyethyl]-2-oxabicyclo[2.2.2]oct-4-yl}amino)methyl]-2H-pyrido[3,2-b][1,4]oxazin-3(4H)-one]
0.063 (≈ 0.123 µM)	COc1cc2c(CCC34CCC(NCc5ccc6c(n5)NC(=O)CO6)(CC3)CO4)c(F)cnc2cc1F [Example 141, 6-[({1-[2-(3,7-Difluoro-6-methoxyquinolin-4-yl)ethyl]-2-oxabicyclo[2.2.2]oct-4-yl}amino)methyl]-2H-pyrido[3,2-b][1,4]oxazin-3(4H)-one]
0.031 (≈ 0.0627 µM)	COc1ccc2ncc(F)c(CCC34CCC(NCc5ncc6c(n5)NC(=O)CO6)(CC3)CO4)c2n1 [Example 142, 2-((1-(2-(3-Fluoro-6-methoxy-1,5-naphthyridin-4-yl)ethyl)-2-oxabicyclo[2.2.2]octan-4-ylamino)methyl)-6H-pyrimido[5,4-b][1,4]oxazin-7(8H)-one]
0.031 (≈ 0.0607 µM)	COc1ccc2ncc(F)c(CC(O)C34CCC(NCc5ncc6c(n5)NC(=O)CO6)(CC3)CO4)c2n1 (centres unmarked) [Example 143, 2-((1-(2-(3-Fluoro-6-methoxy-1,5-naphthyridin-4-yl)-1-hydroxyethyl)-2-oxabicyclo[2.2.2]octan-4-ylamino)methyl)-6H-pyrimido[5,4-b][1,4]oxazin-7(8H)-one]
0.125 (≈ 0.26 µM)	COc1ccc2ncc(F)c(CCC34CCC(NCc5ncc6c(n5)OCCO6)(CC3)CO4)c2n1 [Example 144, N-((6,7-Dihydro-[1,4]dioxino[2,3-d]pyrimidin-2-yl)methyl)-1-(2-(3-fluoro-6-methoxy-1,5-naphthyridin-4-yl)ethyl)-2-oxabicyclo[2.2.2]octan-4-amine]
0.25 (≈ 0.502 µM)	COc1ccc2ncc(F)c(C[C@@H](O)C34CCC(NCc5ncc6c(n5)OCCO6)(CC3)CO4)c2n1 [Example 145, (R)-1-(4-((6,7-Dihydro-[1,4]dioxino[2,3-d]pyrimidin-2-yl)methylamino)-2-oxabicyclo[2.2.2]octan-1-yl)-2-(3-fluoro-6-methoxy-1,5-naphthyridin-4-yl)ethanol]
0.125 (≈ 0.26 µM)	COc1ccc2ncc(F)c(CCC34CCC(NCc5ccc6c(n5)OCCO6)(CC3)CO4)c2n1 [Example 146, N-((2,3-Dihydro-[1,4]dioxino[2,3-b]pyridin-6-yl)methyl)-1-(2-(3-fluoro-6-methoxy-1,5-naphthyridin-4-yl)ethyl)-2-oxabicyclo[2.2.2]octan-4-amine]
0.125 (≈ 0.252 µM)	COc1ccc2ncc(F)c(CC(O)C34CCC(NCc5ccc6c(n5)OCCO6)(CC3)CO4)c2n1 (centres unmarked) [Example 147, 1-(4-((2,3-Dihydro-[1,4]dioxino[2,3-b]pyridin-6-yl)methylamino)-2-oxabicyclo[2.2.2]octan-1-yl)-2-(3-fluoro-6-methoxy-1,5-naphthyridin-4-yl)ethanol]
